Data published in PubChem BioAssay (NCI).
Where “and” joins values, the source holds several entries; their conditions need not be identical. Identical values can stand only once.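 1) Cells in 96-well plates. 2) Compound, 48 h, 5 concentrations. 3) Linear interpolation between surrounding doses. 4) Unreached endpoint = highest concentration. Abbreviation: GI50, concentration required for 50% inhibition of growth. The concentration for full growth arrest is given as TGI.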

Columns and labels:
Experiment in all cases: NCI-60 cell line screen, 48 h
[1] = test system: HCT-116 colon
[2] = test system: OVCAR-4 ovarian
[3] = test system: UACC-62 melanoma
[4] = test system: A549 NSCLC
[5] = test system: MALME-3M melanoma
[6] = test system: HL-60(TB) leukemia
[7] = test system: IGROV1 ovarian
[8] = test system: HCT-15 colon
[9] = test system: HCC-2998 colon
[10] = test system: U251 CNS

SMILES | GI50 [1] | TGI [1] | GI50 [2] | TGI [2] | GI50 [3] | TGI [3] | GI50 [4] | TGI [4] | GI50 [5] | TGI [5] | GI50 [6] [µM] | TGI [6] | GI50 [7] | TGI [7] | GI50 [8] [µM] | TGI [8] | GI50 [9] [µM] | TGI [9] | GI50 [10] [µM] | TGI [10]
COc1cc(-n2cnc(-c3ccc(Cl)cc3)c2)cc(OC)c1OC | > 100 µM | > 100 µM | 15.8 µM | 46.6 µM | 62.4 µM | > 100 µM | > 100 µM | > 100 µM | 16.1 µM | 32.9 µM | 15.3 | 35.4 µM | 30.7 µM | > 100 µM | 16.8 | 36.3 µM | 16.8 | 30.4 µM | 22.2 | 57.8 µM
OCC1OC(n2cnc3c2NC=NC[C@H]3O)CC1O (stereo partly specified) | > 588 µM | 500 µM and > 588 µM | > 588 µM | 500 µM and > 588 µM | > 588 µM | 461 µM and > 588 µM | 412 µM and > 588 µM | 461 µM and > 588 µM | > 588 µM | 471 µM and > 588 µM | 219 | 465 µM and > 588 µM | > 588 µM | 500 µM and > 588 µM | > 588 | 500 µM and > 588 µM | > 588 | 402 µM and > 588 µM | > 588 | 500 µM and > 588 µM
Brc1ccccc1C=NC12CC3CC(CC(C3)C1)C2 | – | > 100 µM | – | > 100 µM | – | > 100 µM | – | > 100 µM | – | > 100 µM | – | 4.37 µM | – | > 100 µM | – | > 100 µM | – | > 100 µM | – | > 100 µM
Cc1c(-c2nnc(-c3ccc(F)cc3)o2)nnn1-c1ccnc2c(C(F)(F)F)cccc12 | 16.7 µM | > 100 µM | 21 µM | > 100 µM | > 100 µM | > 100 µM | 32.3 µM | > 100 µM | 41.7 µM | > 100 µM | > 100 | > 100 µM | 23.4 µM | > 100 µM | > 100 | > 100 µM | > 100 | > 100 µM | 30.4 | > 100 µM
Cc1nn(-c2ccccc2)c2nc3c(nc12)C1=NCCN1C(c1ccc(Cl)cc1)N3 (stereo unspecified) | 2.16 µM | 4.86 µM | 7.1 µM | 20.9 µM | 1.95 µM | 3.8 µM | 4.63 µM | 17.7 µM | 2.18 µM | 4.12 µM | 1.87 | 4.4 µM | 11.7 µM | 27.4 µM | 2.89 | 9.75 µM | 1.92 | 3.49 µM | 2.21 | 5.98 µM
O=C1c2cc([N+](=O)[O-])cc3cc([N+](=O)[O-])cc(c23)C(=O)N1CCCNCCNCCCN1C(=O)c2cc([N+](=O)[O-])cc3cc([N+](=O)[O-])cc(c23)C1=O | – | 0.667 µM | – | 3.31 µM | – | 1.48 µM | – | 3.6 µM | – | 1.33 µM | – | 1.13 µM | – | 1.74 µM | – | > 30.6 µM | – | 1.51 µM | – | 3.49 µM
CC1OC(n2c3ccccc3c3c4c(c5c6ccccc6[nH]c5c32)C(=O)N(CCN2CCOCC2)C4=O)CC(O)C1O (stereo unspecified) | 1.33 µM | 6.92 µM | 4.03 µM | 14.1 µM | 1.03 µM | 6.06 µM | 2.51 µM | 10.4 µM | 4.54 µM | 12.8 µM | 2.28 | 13.1 µM | 3.67 µM | 16 µM | 2.34 | 13.5 µM | 7.03 | 14 µM | 1.24 | 7.19 µM
COc1ccc(NC(=O)CC(=O)N2N=C(N(CCC#N)c3cccc(C)c3)CC2c2ccccc2)cc1 (stereo unspecified) | – | > 100 µM | – | > 100 µM | – | > 100 µM | – | > 100 µM | – | > 100 µM | – | > 100 µM | – | > 100 µM | – | > 100 µM | – | > 100 µM | – | > 100 µM
Cn1ccnc1C(=O)/C=C/c1ccc(CC(=O)Nc2ccc(F)cc2)cc1 | 0.99 µM | 3.68 µM | 5.68 µM | > 25 µM | 3.51 µM | 7.75 µM | 6.43 µM | > 25 µM | 5.28 µM | 14.9 µM | 1.6 | 12.4 µM | 2.93 µM | 16.6 µM | 1.29 | 9.26 µM | 3.78 | 7.95 µM | 1.4 | 4.81 µM
CCN(CC)CCCC(Cc1ccccc1)Nc1c2ccc(Cl)cc2nc2ccc(OC)cc12 (stereo unspecified) | 1.95 µM | 10.7 µM | 2.15 µM | 6.2 µM | 1.95 µM | 3.64 µM | 2.79 µM | 7.29 µM | 2.02 µM | 3.6 µM | 2.11 | 4.45 µM | 3.21 µM | 13.2 µM | 1.88 | 4.72 µM | 1.61 | 3.3 µM | 1.56 | 3.11 µM
NC1=CC(=O)c2nc3ccccc3c3ccnc1c23 | 3.99 µM | > 100 µM | 7.7 µM | > 59 µM | 2.38 µM | 17.2 µM | 0.132 µM | > 21.6 µM | 0.0856 µM | 0.556 µM | 6.38 | > 58.8 µM | 1.57 µM | 6.33 µM | 0.622 | > 100 µM | 0.497 | 11.5 µM | 2.17 | > 45.2 µM
CC(C)n1c(=O)n(C)c2cnc3cc(F)c(-c4ccc(OCCCN5CCCCC5)nc4)cc3c21 | 10.9 µM | 27.4 µM | 9.08 µM | 56.5 µM | 14.1 µM | 29.3 µM | 16.3 µM | 63.9 µM | 10.6 µM | 23.4 µM | 12.7 | 38.2 µM | 8.18 µM | 41.9 µM | 11.1 | 31.5 µM | 23.3 | > 100 µM | 13.5 | 37.6 µM
CCCC(=O)Nc1ccc2c(c1)CN1C(=O)c3ccccc3C1=N2 | – | > 100 µM | – | > 100 µM | – | > 100 µM | – | > 100 µM | – | > 100 µM | – | > 100 µM | – | > 100 µM | – | > 100 µM | – | > 100 µM | – | > 100 µM
COc1ccc(CCN2CCC(Nc3nc4ccccc4n3Cc3ccc(F)cc3)CC2)cc1 | 1.21 µM | 2.44 µM | 1.25 µM | 2.57 µM | 1.41 µM | 2.8 µM | 1.82 µM | 3.75 µM | 1.72 µM | 3.4 µM | 1.96 | 3.81 µM | 2.01 µM | 4.27 µM | 1.51 | 3.16 µM | 0.46 | 1.69 µM | 1.47 | 2.89 µM
CC(=O)OC1CC2C(C)(C)C(=O)C=C[C@]2(C)C2CCC3(C)C(c4ccoc4)[C@@H](O)[C@H]4O[C@]43[C@]12C (stereo partly specified) | – | 51.9 µM | – | 38.8 µM | – | 32.5 µM | – | 85.7 µM | – | 51.7 µM | – | 46.7 µM | – | 46.2 µM | – | 31.2 µM | – | 29.6 µM | – | 27.8 µM
COC(=O)C1=C(CS(=O)c2ccc([N+](=O)[O-])cc2[N+](=O)[O-])ON(C)C1c1ccccc1 (stereo unspecified) | – | > 100 µM | – | > 100 µM | – | > 75.2 µM | – | > 100 µM | – | > 100 µM | – | 24.2 µM | – | > 100 µM | – | > 78.9 µM | – | > 56.7 µM | – | > 78.6 µM
Cc1[nH]nc2ccc3nc(-c4ccc5[nH]ncc5c4)c4c(c3c12)CCCC4 | 0.473 µM | 11.3 µM | 2.12 µM | 28 µM | 0.717 µM | 6.13 µM | 0.932 µM | 12.4 µM | 1.33 µM | 6.32 µM | 1.73 | 4.32 µM | 0.492 µM | 7.14 µM | 0.638 | 12.6 µM | 2.19 | 15.1 µM | 0.92 | 13.9 µM
Cc1cc(C)c2nc3nc(C)cc(C)c3c(N)c2c1 | 3.12 µM | 15 µM | 3.63 µM | 19.8 µM | 4.83 µM | 18.9 µM | 4.34 µM | > 100 µM | 4.19 µM | 16.6 µM | 2.74 | 12.9 µM | 3.64 µM | 28.2 µM | 3.96 | 22.5 µM | 9.61 | 22.5 µM | 4.3 | 26.1 µM
c1ccc(CN2CCCCC(Sc3ccccc3)CC2)cc1 (stereo unspecified) | – | 43.9 µM | – | > 100 µM | – | > 100 µM | – | > 100 µM | – | 38.2 µM | – | 46.3 µM | – | > 100 µM | – | 33.5 µM | – | 29.8 µM | – | 31.7 µM
O=C(O)CP(=O)(O)O | – | > 100 µM | – | > 100 µM | – | > 100 µM | – | > 100 µM | – | > 100 µM | – | > 100 µM | – | > 100 µM | – | > 100 µM | – | > 100 µM | – | > 100 µM
CCCCCCCCCCCCCCCCCC(=O)OCC(COC1OC(CS(=O)(=O)O)C(O)C(O)C1O)OC(=O)CCCCCCCCCCCCCCCCC (stereo unspecified) | – | > 100 µM | – | > 100 µM | – | > 100 µM | – | > 100 µM | – | > 100 µM | – | > 100 µM | – | > 100 µM | – | > 100 µM | – | > 100 µM | – | > 100 µM
CSc1nc(C)c(Br)c(=O)n1C1OC(COC(C)=O)C(OC(C)=O)C(OC(C)=O)C1OC(C)=O (stereo unspecified) | > 88.4 µM and 35 µM | > 100 µM | > 100 µM and 20.5 µM | > 100 µM and 52.2 µM | 97 µM and 23.3 µM | > 100 µM and 44.1 µM | > 100 µM and 28.5 µM | > 100 µM | > 100 µM and 33.4 µM | > 100 µM and 70.4 µM | – | > 100 µM | > 100 µM and 27.4 µM | > 100 µM and 71.5 µM | – | > 100 µM | – | > 100 µM | – | > 100 µM and 49.3 µM
CCN(CC)CCCCNc1ncc2cc(-c3cc(OC)cc(OC)c3)c(NC(=O)NC(C)(C)C)nc2n1 | 4.13 µM | 16.3 µM | 1.84 µM | 25.5 µM | 4.2 µM | 15.1 µM | 7.84 µM | 23 µM | 1.96 µM | 4.17 µM | 1.99 | 4.8 µM | 3.64 µM | 16.3 µM | 3.63 | 17.5 µM | 12.7 | 26 µM | 2.77 | 17.5 µM
